Source: publication PMC9950143 (Scientific Reports, 2023)
Where two headings read alike, the source gives them in different places.

What was measured:
[1] = tested on: Human coronavirus 229E (HCoV-229E); assay: microbe, parasite or virus in culture; format: cell-based
Enterovirus 68D = assay: CPE assay, RD cells; format: cell-based; details: Enterovirus 68D [RD]
Enterovirus 71 = assay: CPE assay, RD cells; format: cell-based; details: Enterovirus 71 [RD]
Rhinovirus A2 = assay: CPE assay, H1 HeLa cells; format: cell-based
Rhinovirus 16 = assay: CPE assay, H1 HeLa cells; format: cell-based; details: Rhinovirus 16 [H1 HeLa]
[2] = tested on: Dengue 1 virus (Western Pacific); assay: microbe, parasite or virus in culture; format: cell-based; details: Dengue 1 virus (Western Pacific) [Huh-7]
[3] = tested on: Dengue 1 virus (Djibouti); assay: microbe, parasite or virus in culture; format: cell-based
Dengue 2 virus (RL) = assay: microbe, parasite or virus in culture; format: cell-based
Dengue 3 virus (H87) = assay: microbe, parasite or virus in culture; format: cell-based
Dengue 4 virus (MY01) = assay: microbe, parasite or virus in culture; format: cell-based; details: Dengue 4 virus (MY01) [Huh-7]
[4] = tested on: Dengue 4 virus (Dakar_HD_34460); assay: microbe, parasite or virus in culture; format: cell-based
Zika virus (PRVABC59) = assay: NanoLuc reporter virus infection assay, Huh-7; format: cell-based; details: Zika virus (PRVABC59) [Huh-7]
Zika virus (MR766) = assay: microbe, parasite or virus in culture; format: cell-based
[5] = tested on: Yellow fever virus (YFS11); assay: microbe, parasite or virus in culture; format: cell-based
West Nile (NY99) = assay: microbe, parasite or virus in culture; format: cell-based, West Nile virus
Ebola virus (Mayinga) = assay: microbe, parasite or virus in culture; format: cell-based
Ebola virus (Kikwit) = assay: microbe, parasite or virus in culture; format: cell-based
Sudan virus (Gulu) = assay: microbe, parasite or virus in culture; format: cell-based
Marburg virus (Ci67) [6] = assay: microbe, parasite or virus in culture; format: cell-based
Marburg (Kabale) = assay: microbe, parasite or virus in culture; format: cell-based, Marburg virus
Marburg (Drandema) = assay: microbe, parasite or virus in culture; format: cell-based, Marburg virus
Ravn Virus = assay: microbe, parasite or virus in culture; format: cell-based
HCV GT2a replicon = assay: HCV subgenomic replicon Renilla luciferase assay, Huh-7-lunet; format: cell-based, hepatitis C virus; details: Hepatitis C (2a) [Huh-7-lunet]
HDV genotype 1 virus = assay: HDV infection assay (HDAg immunofluorescence), Huh7-NTCP cells; format: cell-based, hepatitis delta virus; details: Hepatitis D (Huh7-NTCP)
DENV = assay: microbe, parasite or virus in culture; format: cell-based; details: Dengue virus, Huh-7, read-out: EC50 range against DENV
HCV genotype 1b and 2a = assay: HCV subgenomic replicon assay (summary of both genotypes); format: cell-based; details: Hepatitis C virus; genotype 1b and 2a subgenomic replicon; read-out: EC50 against replicons of both HCV genotypes
SUDV Boniface [7] = format: cell-based, Sudan virus; details: read-out: RDV EC50
SUDV Boniface [8] = assay: microbe, parasite or virus in culture; format: cell-based, Sudan virus; details: Sudan ebolavirus, HeLa; n = 9; read-out: RDV activity against SUDV EC50
Huh-7 cells = details: human
OC43 = details: different cells and/or assay protocols, read-out: Previously reported activity EC50; cited from earlier work
Ebola virus = details: read-out: Previously reported activity EC50; cited from earlier work
Marburg virus (Ci67) [9] = details: read-out: Previously reported activity EC50; cited from earlier work
in vitro = details: human
[10] = Cytotoxicity by nuclei count in HDV assay; details: human, Huh7-NTCP cells (HDV assay)
[11] = Cell toxicity, CellTiter-Glo, in HBV assay; details: human, PHH cells (HBV assay)
[12] = Multiplex cytotoxicity (calcein AM) in HCV replicon assay; details: human, Huh-7-lunet HCV genotype 1b replicon cells
[13] = n = 1, read-out: Antiviral activity EC50
[14] = Dengue virus, Huh-7, read-out: Antiviral activity EC50
[15] = Zaire ebolavirus, HeLa, read-out: Antiviral activity EC50
[16] = Filoviridae, HeLa, read-out: Antiviral activity EC50

With `CCC(CC)COC(=O)[C@H](C)N[P@](=O)(OC[C@H]1O[C@@](C#N)(c2ccc3c(N)ncnn23)[C@H](O)[C@@H]1O)Oc1ccccc1` [RDV, Remdesivir] as the compound, how does the “Selectivity index (SI) = CC50/EC50” value [1] read?
The value was greater than 538.

What about the EC50 ([1]; Human coronavirus 229E, H1-HeLa, read-out: Antiviral activity EC50) of the same compound?
The EC50 was 93 ± 53 nM.

What about the “Selectivity index (SI) = CC50/EC50” value (Enterovirus 68D) of the same compound?
The value was 56.

What about the EC50 (Enterovirus 68D; [13]) of the same compound?
The EC50 was 50 nM.

What about the “Selectivity index (SI) = CC50/EC50” value (Enterovirus 71) of the same compound?
Its value is 24.

What about the EC50 (Enterovirus 71; Enterovirus A, n = 1, read-out: Antiviral activity EC50) of the same compound?
Its EC50 is 140 nM.

And the “Selectivity index (SI) = CC50/EC50” value (Rhinovirus A2)?
Its value is greater than 22.

And the EC50 (Rhinovirus A2; Rhinovirus A, n = 1, read-out: Antiviral activity EC50)?
The EC50 was 450 nM.

What about the EC50 (Rhinovirus 16; Enterovirus, n = 1, read-out: Antiviral activity EC50) of the same compound?
The EC50 was 750 nM.

What about the “Selectivity index (SI) = CC50/EC50” value (Rhinovirus 16) of the same compound?
Its value is greater than 13.

What about the “Selectivity index (SI) = CC50/EC50” value [2] of the same compound?
Its value is 159.

And the EC50 [2, 13]?
The EC50 was 210 nM.

What about the “Selectivity index (SI) = CC50/EC50” value [3] of the same compound?
The value was 108.

And the EC50 [3, 14]?
The EC50 was 310 ± 90 nM.

What about the “Selectivity index (SI) = CC50/EC50” value (Dengue 2 virus (RL)) of the same compound?
Its value is 115.

And the EC50 (Dengue 2 virus (RL); [14])?
Its EC50 is 290 ± 70 nM.

What about the “Selectivity index (SI) = CC50/EC50” value (Dengue 3 virus (H87)) of the same compound?
Its value is 196.

What about the EC50 (Dengue 3 virus (H87); [14]) of the same compound?
The EC50 was 170 ± 70 nM.

And the “Selectivity index (SI) = CC50/EC50” value (Dengue 4 virus (MY01))?
The value was 186.

What about the EC50 (Dengue 4 virus (MY01); [13]) of the same compound?
Its EC50 is 180 nM.

And the “Selectivity index (SI) = CC50/EC50” value [4]?
Its value is 176.

What about the EC50 [4, 14] of the same compound?
The EC50 was 190 ± 50 nM.

And the “Selectivity index (SI) = CC50/EC50” value (Zika virus (PRVABC59))?
The value was 128.

What about the EC50 (Zika virus (PRVABC59); [13]) of the same compound?
The EC50 was 260 nM.

What about the “Selectivity index (SI) = CC50/EC50” value (Zika virus (MR766)) of the same compound?
The value was 29.

And the EC50 (Zika virus (MR766); Zika virus, Huh-7, read-out: Antiviral activity EC50)?
The EC50 was 1150 ± 30 nM.

What about the “Selectivity index (SI) = CC50/EC50” value [5] of the same compound?
Its value is 32.

What about the EC50 ([5]; Yellow fever virus, Huh-7, n = 1, read-out: Antiviral activity EC50) of the same compound?
The EC50 was 1060 nM.

What about the “Selectivity index (SI) = CC50/EC50” value (West Nile (NY99)) of the same compound?
The value was 668.

And the EC50 (West Nile (NY99); West Nile virus, Huh-7, n = 1, read-out: Antiviral activity EC50)?
Its EC50 is 50 nM.

And the “Selectivity index (SI) = CC50/EC50” value (Ebola virus (Mayinga))?
The value was greater than 18.

And the EC50 (Ebola virus (Mayinga); [15])?
The EC50 was 136 ± 17 nM.

And the “Selectivity index (SI) = CC50/EC50” value (Ebola virus (Kikwit))?
The value was greater than 36.

What about the EC50 (Ebola virus (Kikwit); [15]) of the same compound?
Its EC50 is 70 ± 8 nM.

And the “Selectivity index (SI) = CC50/EC50” value (Sudan virus (Gulu))?
The value was greater than 192.

What about the EC50 (Sudan virus (Gulu); Sudan ebolavirus, HeLa, n = 1, read-out: Antiviral activity EC50) of the same compound?
The EC50 was 60 nM.

And the “Selectivity index (SI) = CC50/EC50” value (Marburg virus (Ci67) [6])?
Its value is greater than 83.

What about the EC50 (Marburg virus (Ci67) [6]; [16]) of the same compound?
Its EC50 is 30 ± 2 nM.

What about the “Selectivity index (SI) = CC50/EC50” value (Marburg (Kabale)) of the same compound?
The value was greater than 63.

What about the EC50 (Marburg (Kabale); [16]) of the same compound?
Its EC50 is 40 ± 2 nM.

And the “Selectivity index (SI) = CC50/EC50” value (Marburg (Drandema))?
The value was greater than 74.

What about the EC50 (Marburg (Drandema); [16]) of the same compound?
The EC50 was 34 ± 4 nM.

What about the “Selectivity index (SI) = CC50/EC50” value (Ravn Virus) of the same compound?
The value was greater than 37.

What about the EC50 (Ravn Virus; [16]) of the same compound?
Its EC50 is 68 ± 10 nM.

What about the “Selectivity index (SI) = CC50/EC50” value (HCV GT2a replicon) of the same compound?
Its value is 236.

And the EC50 (HCV GT2a replicon; Hepatitis C virus, GT2A, read-out: Antiviral activity EC50)?
Its EC50 is 72 ± 13 nM.

And the “Selectivity index (SI)” value (HDV genotype 1 virus)?
Its value is “Low (When minimal RDV antiviral activity is observed for a particular virus, low SI is indicated)”.

And the EC50 (HDV genotype 1 virus; Hepatitis delta virus, read-out: Antiviral activity EC50)?
The EC50 was greater than 5000 nM.

And the EC50 (DENV)?
Its EC50 is 120 to 230 nM.

And the EC50 (HCV genotype 1b and 2a)?
The EC50 was 72 to 89 nM.

What about the EC50 (SUDV Boniface [7]) of the same compound?
Its EC50 is 212 nM.

What about the EC50 (SUDV Boniface [8]) of the same compound?
The EC50 was 308 nM.

And the “concentration at which cytotoxicity was observed” value (Huh-7 cells)?
The value was “approximately 4 µM”.

What about the EC50 (OC43) of the same compound?
The EC50 was 96 to 150 nM.

And the EC50 (Ebola virus)?
The EC50 was 3 to 140 nM.

What about the EC50 (Marburg virus (Ci67) [9]) of the same compound?
Its EC50 is 10 to 20 nM.

What about the CC50 at 48 h (in vitro) of the same compound?
The CC50 at 48 h was greater than 2500 nM.

What about the CC50 (in vitro; RDV CC50 (SUDV assay)) of the same compound?
Its CC50 is greater than 2500 nM.

And the CC50 [10]?
Its CC50 is 8000 to 10000 nM.

And the CC50 [11]?
Its CC50 is greater than 1000 nM.

And the CC50 [12]?
Its CC50 is greater than 20000 nM.
